# According to patent EP0601184A1, “FUSED PYRIDAZINE COMPOUND AND PHARMACEUTICAL USE THEREOF” (YOSHITOMI PHARMACEUTICAL INDUSTRIES, LTD., priority 1991, dated 1993):
# Columns and labels:
# [1] = system: male ddY mice; experiment: Acute toxicity; format: in vivo; conditions: 5 days
# Protocol: Groups of 5 male ddY mice were used. […] Similarly, the mice were orally administered with 1000 mg/kg of the compound, but they survived for 5 days after the administration.
# [2] = target: benzodiazepine (BZP) receptors; experiment: Displacement ability for benzodiazepine receptor (tritiated diazepam binding, crude synaptosome fraction of cerebral cortex); parameters: species or system Wistar rats; conditions: displacement of tritiated diazepam (2 nM), 0°C, 20 minutes, rat cerebral cortex synaptosome fraction
# Protocol: The test of specific binding to benzodiazepine (BZP) receptors was carried out according to the method described in Life Science, vol. 20, 2101 (1977).
# The crude synaptosome fraction isolated from the cerebral cortex of male Wistar rats aged 9-10 weeks, was suspended in 50 mM Trishydrochloric acid buffer (pH 7.4) containing 120 mM sodium chloride and 5 mM potassium chloride. The suspension was used for the following experiment.
# The test compound in several different concentrations and tritiated diazepam (in final concentration of 2 nM) were added to the synaptosomal suspension, and the mixture was incubated at 0°C for 20 minutes. The suspension was filtered with Whatman GF/B (Trademark) glassfiber filter. After the filter was washed with the above-mentioned buffer, the radio activity left on the filter was measured with a liquid scintillation counter.
# The specific binding was determined by subtracting the binding in the presence of 10⁻⁶ M unlabelled diazepam from total binding.
# The affinity for benzodiazepine receptors of the compound of the present invention is evaluated from its displacement ability for tritiated diazepam at its binding site, which is represented by Ki value (nM).
# [3] = system: GABA-induced chloride current; format: cell-based, American bullfrogs; conditions: dorsal root ganglion neurons
# Protocol: The test was carried out according to the method of Akaike et al. reported in Journal of Physiology (London), 379, 171 (1986) using sensory neurons isolated from dosal root ganglion of American bullfrogs. Neurons were voltage-clamped at a holding membrane potential of -50 mV with a single-electrode voltage-clamp system. Test compounds were applied by using a concentration-clamp technique. When the peak Cl⁻ current (ICl) elicited by 3 x 10⁻⁶ M GABA alone was presented as 1, the augumentive ICl of the test compounds in the presence of 3 x 10⁻⁶ M GABA was measured. The results were presented as relative ICl values in Table 1.
SMILES,"survival after administration ([1]; 300 mg/kg intraperitoneally, groups of 5 male ddY mice)","survival after administration ([1]; 1000 mg/kg orally, male ddY mice)",Ki [2] [nM],Relative ICl [3]
"O=C(c1ccccc1)c1cc2c(s1)CCC1CC(=O)N(c3ccc(Cl)cc3)N=C21 (stereo not shown) [Example 16, 8-benzoyl-2-(4-chlorophenyl)-4,4a,5,6-tetrahydrothieno[2,3-h]cinnolin-3(2H)-one]",all mice survived,survived,,
"CC(=O)c1cc2c(s1)CCCC1CC(=O)N(c3ccc(Cl)cc3)N=C21 (stereo not shown) [Example 18, 9-acetyl-2-(4-chlorophenyl)-2,4,4a,5,6,7-hexahydro-3H-thieno[2',3':6,7]cyclohepta[1,2-c]pyridazin-3-one]",,,4.2,1.38
